System: P. aeruginosa
Test: Fluorescence lifetime imaging microscopy (FLIM) phasor g-values of P. aeruginosa
Type: cell-based, Pseudomonas aeruginosa
Conditions: for enzyme-bound NADH pool: surface-attached P. aeruginosa treated with carbon source; for fluorescence lifetime g-value / change in FLIM g-value: surface-attached; for fluorescence lifetime g-value: modified minimal medium, single carbon source at 0.2%; for change in FLIM g-value: rich (PS:DB) medium, carbon source 0.2% added at 3 hours, harvested after 1 additional hour
Description: Fluorescence lifetime measurements were performed using a custom-built multiphoton microscope setup based on an Olympus FV1000 system and an Olympus IX81 microscope (Olympus, Waltham, Mass.) as described previously (68). The FLIM microscope uses an 80 MHz ultrafast Ti:Sapphire Mai Tai laser (Spectra-physics, Santa Clara, Calif.) set at 740 nm for mulitphoton excitation. The setup used a 690-nm SP dichroic-460/80 nm filter pair for separating emission and a PlanApo N Olympus oil immersion 60× (1.42 NA) objective (Olympus, Waltham, Mass.), which is capable of bacterial single-cell resolution imaging. An H7422P-40 photomultiplier tube module (Hamamatsu, Bridgewater, N.J.) and A320 FastFLIM Box (ISS, Champaign, Ill.) were used to measure fluorescence lifetime. Image acquisition was controlled by SimFCS software version 4 (64-bit) (Laboratory for Fluorescence Dynamics, Irvine, Calif.). Planktonic and surface-attached cells were isolated by modifying a protocol described previously (12, 50) (FIG. 11A).
Masks for bacterial cells were created through SimFCS using fluorescence intensity images and image intensity thresholding (FIG. 11B). Fluorescence lifetimes within the masked areas were transformed using
The microscope was calibrated before each session by setting the fluorescence lifetime obtained for 10 μM rhodamine 110 (Sigma, St. Louis, Mo.) to 4.0 ns. The laser power was set to 20% (<3 mW at back aperture of the microscope) using an acousto-optic modulator (AA Opto Electronic, Orsay, France). Sub-cellular fluorescence lifetimes (FIG. 1A) were collected using the 20× digital zoom mode at a rate of 1.7 sec/frame. All other P. aeruginosa measurements were performed using the 6× digital zoom mode using the same frame rate. For all measurements, 40 sequential frames were acquired to generate a single FLIM image.
P. aeruginosa strains were cultured overnight in PS:DB, diluted 1:100 into 35 mm glass-bottom dishes (MatTek Corporation, Ashland, Mass.) containing the same medium, and cultured for 4 to 6 hours (FIGS. 2E-F, 4A, 5A, and 8C). Alternatively, strains were cultured overnight in minimal medium A, diluted 1:100 into modified minimal media A with single carbon sources in culture tubes (FIGS. 6D-E and 7A-B, D) or glass-bottom dishes and cultured to an OD600 of 0.2 (FIG. 2E-F).
Planktonic cells were transferred to a new glass-bottom dish, immobilized using an agar pad, and imaged immediately (FIG. 11A). Agar pads were made using 1% Bacto agar (BD, Franklin Lakes, N.J.) and DB buffer (1, 2) or modified minimal medium A containing no carbon source for strains that were cultured in PS:DB or modified minimal medium, respectively, and were cut into 1.5×1.5 cm squares. Surface-attached cells were isolated by aspirating the supernatant from the dish, washing the dish to remove planktonic cells with DB buffer or modified minimal medium with no carbon source for strains cultured in PS:DB or modified minimal medium, respectively, and placing an agar pad on the dish surface, and were imaged immediately. Imaging was performed at room temperature.
For experiments involving FLIM measurements of the effects of antimycin A (FIG. 7D), P. aeruginosa were grown in culture tubes to saturation in modified minimal medium A containing 0.2% citrate, diluted 1:100 into the same medium in culture tubes, supplemented with 10 μM antimycin A (Sigma, St. Louis, Mo.) with 0.1% ethanol or with 0.1% ethanol, cultured to an OD600 of 0.2, and immediately measured for fluorescence lifetime. Fluorescence lifetimes for pyocyanin and pyoverdine (FIG. 7C) were measured using solutions of 6.2 mM pyocyanin (P0046, Sigma, St. Louis, Mo.) in DMSO and 5 mg/mL pyoverdine (P8124, Sigma, St. Louis, Mo.) in deionized water, respectively. For FIG. 6D, cells with fluorescence intensities below a value of 1.0, as reported by the SimFCS software, were excluded from the analysis. […]

Row | Compound | enzyme-bound NADH pool | fluorescence lifetime g-value | change in FLIM g-value
1 | O=C(O)CC(O)(CC(=O)O)C(=O)O [citrate] | decreased | increasing g-values | greatest increases
2 | OCC(O)CO [glycerol] | relatively small impacts | increasing g-values | smallest changes
